Consider ten compounds from patent US10940188B2, “Compounds and methods for treatment and prevention of Flavivirus infection” (priority 2016, dated 2021).

Assay [1] deals with ZIKV-induced cell death in SNB-19 cells. Briefly: ATP cell viability assay for ZIKV-induced cell death, SNB-19 cells. In kind it is cell-based, human. As to conditions: ZIKV-infected SNB-19 cells; for IC50: read-out: Cell viability (IC50, uM) SNB-19. How it is done: (§1) The reagent was reconstituted and prepared as described by the manufacturer. In order to measure the cell death caused by ZIKV infection, cells were cultured for 16 hours at 37° C. with 5% CO2 in assay plates, followed by the addition of ZIKV solution and incubation at 37° C. with 5% CO2 for 72 hours. ATPlite, the ATP monitoring reagent, was then added to the assay plates and they were incubated for 15 minutes. The resulting luminescence was measured using the ViewLux plate reader (Perkin Elmer). Data were normalized using the wells without cells as a control for 100% cell killing, and cell-containing wells without ZIKV infection were used as full cell viability (0% cell killing). […]
as §1, with “The ATPlite luminescence assay system assay kit (PerkinElmer) was used to determine cell viability. The reagent” for “The reagent”, “by the manufacture. In order” for “by the manufacturer. In order”, “followed by addition of” for “followed by the addition of”, “plates and incubated for” for “plates and they were incubated for”, “Elmer). Data was normalized using” for “Elmer). Data were normalized using”

Assay [2] concerns ZIKV-induced caspase 3/7 activity in human astrocytes. Briefly: Caspase 3/7 activity assay, ZIKV-infected human astrocytes. As to conditions: ZIKV-infected human astrocytes; for IC50: read-out: Caspase 3 (IC50, uM) Astrocyte; for Emax: read-out: Caspase 3 (efficacy, %) Astrocyte. The assay is classed as cell-based. How it is done:
(§2) Caspase-Glo 3/7 assay kit (catalog number G8092; Promega, Madison, Wis.) was used to detect caspase 3/7 activity. Reagents were reconstituted as described in the protocol from the manufacturer. Polystyrene plates (384-well and 1536-well; regular tissue culture treated and PDL coated) were purchased from Greiner Bio-One (Monroe, N.C.). Cells were seeded in 384- and 1536-well assay plates and cultured at 37° C. with 5% CO2 for 16 hours. ZIKV solution was added to cells, followed by incubation at 37° C. with 5% CO2 for 6 hours. Caspase-Glo 3/7 was added to each well, unless otherwise specified, and incubated at room temperature for 30 minutes. The luminescence intensity of the assay plates was measured using a ViewLux plate reader (PerkinElmer). Data were normalized by using the cell-containing wells without ZIKV as a negative control (0% induction of caspase 3/7 activity) and wells containing ZIKV infected cells that induced caspase 3/7 activity were used as a positive control (100% induction of caspase 3/7 activity). […]
(§3) Caspase-Glo 3/7 assay kit (Promega) was used to detect caspase 3/7 activity. Reagents were reconstituted as described in the protocol from the manufacturer. Cells were seeded in 384- and 1536-well assay plates and cultured at 37° C. with 5% CO2 for 16 hours. ZIKV solution was added to cells, followed by incubation at 37° C. with 5% CO2 for 6 hours. Caspase-Glo 3/7 was added to each well at a 1:1 ratio, unless otherwise specified, and incubated at room temperature for 30 minutes. The luminescence intensity of the assay plates was measured using a ViewLux plate reader (PerkinElmer). Data was normalized by using the cell-containing wells without ZIKV as a negative (0% induction of caspase 3/7 activity) control and wells containing ZIKV infected cells that induced caspase 3/7 activity were used as a positive control (100% induction of caspase 3/7 activity). […]

The subject of assay [3] is ZIKV-induced caspase 3/7 activity in SNB-19 cells. Nature of the assay: Caspase 3/7 activity assay, ZIKV-infected SNB-19 cells. To be noted: ZIKV-infected SNB-19 cells; for IC50: read-out: Caspase 3 (IC50, uM) SNB-19; for Emax: read-out: Caspase 3 (efficacy, %) SNB-19. In kind it is cell-based. The protocol: as §2, §3
In assay [4] the test system is ZIKV-induced cell death in human astrocytes. Briefly: ATP cell viability assay for ZIKV-induced cell death, human astrocytes. In kind it is cell-based. To be noted: ZIKV-infected human astrocytes; for IC50: read-out: Cell viability (IC50, uM) Astrocyte.
Assay [5] has as its system ZIKV-induced caspase 3/7 activity in hNPCs. Nature of the assay: Caspase 3/7 activity assay, ZIKV-infected hNPCs. The assay is classed as cell-based. To be noted: ZIKV-infected hNPCs; for IC50: read-out: Caspase 3 (IC50, uM) NPCs; for Emax: read-out: Caspase 3 (efficacy, %) NPCs. How it is done:
Caspase-Glo 3/7 assay kit (catalog number G8092; Promega, Madison, Wis.) was used to detect caspase 3/7 activity. Reagents were reconstituted as described in the protocol from the manufacturer. Polystyrene plates (384-well and 1536-well; regular tissue culture treated and PDL coated) were purchased from Greiner Bio-One (Monroe, N.C.). Cells were seeded in 384- and 1536-well assay plates and cultured at 37° C. with 5% CO2 for 16 hours. ZIKV solution was added to cells, followed by incubation at 37° C. with 5% CO2 for 6 hours. Caspase-Glo 3/7 was added to each well, unless otherwise specified, and incubated at room temperature for 30 minutes. The luminescence intensity of the assay plates was measured using a ViewLux plate reader (PerkinElmer). Data were normalized by using the cell-containing wells without ZIKV as a negative control (0% induction of caspase 3/7 activity) and wells containing ZIKV infected cells that induced caspase 3/7 activity were used as a positive control (100% induction of caspase 3/7 activity).
Human NPCs were seeded onto PDL coated 1536-well assay plates at 250 cells per 3 μl/well and incubated at 37° C. in 5% CO2 for 16 hours. Test compounds dissolved in DMSO were transferred to assay plates at a volume of 23 nl/well by an automated pintool workstation (Wako Automation, San Diego, Calif.). Compounds were incubated with cells for 30 minutes at 37° C. in 5% CO2, immediately followed by the addition of 2 μl/well of ZIKV. Incubation time of compound-treated cells with ZIKV varied based on assay format. Experiments measuring virus-induced caspase 3/7 activity required a 6 hour incubation of ZIKV in the presence compounds at 37° C. in 5% CO2. Following this incubation, 3.5 μl/well of caspase 3/7 reagent mixture was added to assay plates. The plates were incubated for 30 minutes at room temperature, and the resultant luminescence signal was measured using a ViewLux plate reader (Perkin Elmer). Experiments measuring virus-induced cell death required a 72-hour incubation of ZIKV in the presence of compounds at 37° C. in 5% CO2. Following this incubation, 3.5 μl/well of ATP content detection reagent was added to assay plates, incubated for 30 minutes at the room temperature, and the resultant luminescence signal was measured in a ViewLux plate reader.
Caspase-Glo 3/7 assay kit (Promega) was used to detect caspase 3/7 activity. Reagents were reconstituted as described in the protocol from the manufacturer. Cells were seeded in 384- and 1536-well assay plates and cultured at 37° C. with 5% CO2 for 16 hours. ZIKV solution was added to cells, followed by incubation at 37° C. with 5% CO2 for 6 hours. Caspase-Glo 3/7 was added to each well at a 1:1 ratio, unless otherwise specified, and incubated at room temperature for 30 minutes. The luminescence intensity of the assay plates was measured using a ViewLux plate reader (PerkinElmer). Data was normalized by using the cell-containing wells without ZIKV as a negative (0% induction of caspase 3/7 activity) control and wells containing ZIKV infected cells that induced caspase 3/7 activity were used as a positive control (100% induction of caspase 3/7 activity).
Human NPCs were seeded onto PDL coated 1536-well assay plates at 250 cells per 3 μl/well and incubated at 37° C. in 5% CO2 for 16 hours. Test compounds dissolved in DMSO were transferred to assay plates at a volume of 23 nl/well by an automated pintool workstation (Wako Automation, San Diego, Calif.). Compounds were incubated with cells for 30 minutes at 37° C. in 5% CO2, immediately followed by the addition of 2 μl/well of ZIKV. Incubation time of compound-treated cells with ZIKV varied based on assay format. Experiments measuring virus induced caspase 3/7 activity required a 6 hour incubation of ZIKV in the presence compounds at 37° C. in 5% CO2. […]

Structures can show the parent of a compound that is named as a salt. Where two headings read alike, the source gives them in different places.

In the case of `O=c1cc(-c2ccccc2)oc2cc(O)cc(O)c12` [5,7-Dihydroxyflavone], the “Cell viability (efficacy, %) SNB-19” value in assay [1] was 0.0%. The concentration for half-maximal inhibition (IC50) stood at 15.5 µM in assay [2] (Astrocyte), 8.69 µM in assay [3] (Homo sapiens) and 5.48 µM in assay [5] (Homo sapiens). The Emax in assay [2] (Astrocyte) worked out at 55.1%; in assay [3] (Homo sapiens) it was 42.7%; in assay [5] (Homo sapiens), 51%. In assay [4], the “Cell viability (efficacy, %) Astrocyte” value is recorded as 0.0%.
For `CCC[S+]([O-])c1ccc2[nH]c(NC(=O)OC)nc2c1` (stereo not shown) [Albendazole oxide], the “Cell viability (efficacy, %) SNB-19” value in assay [1] came to 0.0%. Further, the figures for the IC50 in assay [2] (Astrocyte), in assay [3] (Homo sapiens) and in assay [5] (Homo sapiens) were 15.5 µM, 21.8 µM and 12.3 µM, respectively. The Emax in assay [2] (Astrocyte) was determined as 78.8%; in assay [3] (Homo sapiens), 86%; in assay [5] (Homo sapiens), 88.1%. Further, the “Cell viability (efficacy, %) Astrocyte” value in assay [4] amounted to 0.0%.
In the case of `Nc1ccc(-c2ccc3ccccc3n2)cc1` [BF-170 hydrochloride], in assay [1], the “Cell viability (efficacy, %) SNB-19” value is on record as 0.0%. In addition, in assay [2], the “Caspase 3 (efficacy, %) Astrocyte” value came out at 118% and the IC50 was found to be 4.61 µM. For the same compound, in assay [3], the “Caspase 3 (efficacy, %) SNB-19” value stood at 104% and the IC50 worked out at 6.15 µM. Also, in assay [4], the “Cell viability (efficacy, %) Astrocyte” value turned out to be 65.8% and the IC50 stood at 6.15 µM. Besides, in assay [5], the “Caspase 3 (efficacy, %) NPCs” value is 92.7% and the 50% inhibitory concentration (IC50) was determined as 4.11 µM.
In the case of `O=c1cc(-c2ccccc2)oc2cc(O)c(O)c(O)c12` [Baicalein], the “Cell viability (efficacy, %) SNB-19” value in assay [1] is listed as 0.0%. For the same compound, the Emax in assay [2] (Astrocyte) was determined as 0%; in assay [3] (Homo sapiens) it was 50.6%; in assay [5] (Homo sapiens) it was 57.5%. Moreover, the 50% inhibitory concentration (IC50) is 29.1 µM in assay [3] (Homo sapiens) and 18.4 µM in assay [5] (Homo sapiens). Besides, in assay [4], the “Cell viability (efficacy, %) Astrocyte” value came out at 0.0%.
On to `CCC(CC)CC1(C(=O)Nc2ccccc2SC(=O)C(C)C)CCCCC1` [Dalcetrapib], for which the IC50 in assay [1] (Homo sapiens) is 35.5 µM; in assay [4] (Astrocyte) it was 47.3 µM; in assay [5] (Homo sapiens), 35.5 µM. Further, the “Cell viability (efficacy, %) SNB-19” value in assay [1] was 110%. In addition, the Emax in assay [2] (Astrocyte) amounted to 0%; in assay [3] (Homo sapiens) it was 50.2%; in assay [5] (Homo sapiens) it was 50.2%. In addition, the “Cell viability (efficacy, %) Astrocyte” value in assay [4] was determined as 45.7%.
Turning to `O=c1c2ccccc2[se]n1-c1ccccc1` [Ebselen], the “Cell viability (efficacy, %) SNB-19” value in assay [1] is on record as 0.0%. Moreover, the IC50 in assay [2] (Astrocyte) is 8.2 µM; in assay [3] (Homo sapiens) it was 17.3 µM; in assay [5] (Homo sapiens) it was 8.2 µM. Moreover, the figures for the Emax in assay [2] (Astrocyte), in assay [3] (Homo sapiens) and in assay [5] (Homo sapiens) were 93.8%, 117% and 109%, respectively. Besides, the “Cell viability (efficacy, %) Astrocyte” value in assay [4] came to 0.0%.
On to `CC(/C=C1\SC(=S)N(CC(=O)O)C1=O)=C\c1ccccc1` [Epalrestat], for which the IC50 in assay [1] (Homo sapiens) came to 5.48 µM; in assay [2] (Astrocyte) it was 19.5 µM; in assay [3] (Homo sapiens), 20.6 µM; in assay [5] (Homo sapiens) it was 15.5 µM. Moreover, the “Cell viability (efficacy, %) SNB-19” value in assay [1] was determined as 82.1%. Further, the values for the Emax in assay [2] (Astrocyte), in assay [3] (Homo sapiens) and in assay [5] (Homo sapiens) were 93.3%, 79.2% and 72.1%, respectively. In addition, the “Cell viability (efficacy, %) Astrocyte” value in assay [4] turned out to be 0.0%.
On to `Cc1nc(-c2ccc(OCC(C)C)c(C#N)c2)sc1C(=O)O` [Febuxostat], for which the IC50 in assay [1] (Homo sapiens) came out at 3.66 µM; in assay [2] (Astrocyte) it was 2.31 µM; in assay [3] (Homo sapiens) it was 2.91 µM; in assay [5] (Homo sapiens), 3.88 µM. In addition, the “Cell viability (efficacy, %) SNB-19” value in assay [1] turned out to be 68.4%. Besides, the Emax in assay [2] (Astrocyte) was found to be 84.8%; in assay [3] (Homo sapiens), 104%; in assay [5] (Homo sapiens), 83.2%. Moreover, the “Cell viability (efficacy, %) Astrocyte” value in assay [4] came to 0.0%.
Consider `CN(C)c1ccc(N=NS(=O)(=O)[O-])cc1.[Na+]` [Fenaminosulf], for which, in assay [1], the “Cell viability (efficacy, %) SNB-19” value worked out at 36.7% and the 50% inhibitory concentration (IC50) turned out to be 15.8 µM. Further, in assay [2], the “Caspase 3 (efficacy, %) Astrocyte” value turned out to be 58.5% and the IC50 is 35.5 µM. Further, in assay [3], the “Caspase 3 (efficacy, %) SNB-19” value came to 0.0%. In assay [4], the “Cell viability (efficacy, %) Astrocyte” value is listed as 0.0%. Also, the “Caspase 3 (efficacy, %) NPCs” value in assay [5] was 0.0%.
For `COc1cc2nc(N3CCN(C(=O)C4CCCO4)CC3)nc(N)c2cc1OC` (stereo not shown) [Terazosin hydrochloride], the IC50 was 12.3 µM in assay [2] (Astrocyte), 17.3 µM in assay [3] (Homo sapiens) and 10.9 µM in assay [5] (Homo sapiens). The Emax in assay [2] (Astrocyte) turned out to be 88.9%; in assay [3] (Homo sapiens) it was 77.3%; in assay [5] (Homo sapiens) it was 84.4%.

Usually IC50 stands for the midpoint of a concentration-inhibition curve.
